From patent publication US12577228B2, “Dihydrocyclopenta-isoquinoline-sulfonamide derivatives compounds” (UCB Biopharma SRL, priority 2019, dated 2026)

Target: T1, IgE-Tb / soluble IgE receptor FcεRIα with a Y131A mutation (Homo sapiens, UniProt P01854, N146Q/N252Q)
T1 construct: fused on or other part: Terbium chelate (LanthaScreen amine-reactive) on IgE-Fc; Alexa Fluor 488 hydrazide on the oxidised glycans of sFcεRIα; Both are labels and no part of the key
Test: in vitro FRET assay: binding of IgE-Tb to receptor FcεRIα-Y131A-AF488 and its inhibition by compounds
Conditions: 5 nM IgE-Tb, 25 nM FcεRIα-Y131A-AF488, 2 hours at room temperature; read-out: FRET IC50 range

T1 sequence (P01854 104-427 N146Q/N252Q): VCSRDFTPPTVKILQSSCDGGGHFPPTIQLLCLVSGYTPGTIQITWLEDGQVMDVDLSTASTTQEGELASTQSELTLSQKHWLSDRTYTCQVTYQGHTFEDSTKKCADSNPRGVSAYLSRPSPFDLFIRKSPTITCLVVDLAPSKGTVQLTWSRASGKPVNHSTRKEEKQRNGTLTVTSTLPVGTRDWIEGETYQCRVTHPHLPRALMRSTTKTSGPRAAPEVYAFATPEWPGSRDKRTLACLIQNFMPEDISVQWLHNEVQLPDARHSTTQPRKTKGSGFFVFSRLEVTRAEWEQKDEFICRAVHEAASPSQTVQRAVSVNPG
T1 sequence (P12319 26-201 Y156A partner): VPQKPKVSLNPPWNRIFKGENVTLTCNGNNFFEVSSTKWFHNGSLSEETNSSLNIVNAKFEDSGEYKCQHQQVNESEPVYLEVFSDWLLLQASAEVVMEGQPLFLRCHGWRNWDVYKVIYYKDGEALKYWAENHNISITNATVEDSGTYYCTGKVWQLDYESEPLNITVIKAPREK

Compared with `Cn1cc(C(=O)N[C@@H]2Cc3cc4cnc(C5CC5)cc4c(S(=O)(=O)NCC(C)(C)F)c3C2)c2ccccc21` [Example 132, N-[(7R)-3-cyclopropyl-5-[(2-fluoro-2-methylpropyl)sulfamoyl]-7,8-dihydro-6H-cyclopenta[g]isoquinolin-7-yl]-1-methylindole-3-carboxamide], `CC(C)(F)CNS(=O)(=O)c1c2c(cc3cnc(C4CC4)cc13)C[C@@H](NC(=O)c1nccc3ccccc13)C2` [Example 135, N-[(7R)-3-cyclopropyl-5-[(2-fluoro-2-methylpropyl)sulfamoyl]-7,8-dihydro-6H-cyclopenta[g]isoquinolin-7-yl]isoquinoline-1-carboxamide] is higher in IC50: 10 to 50 nM for the first, 100 to 2000 nM for the second. The first is the more potent here.

First: COc1ccc2c(C(=O)N[C@@H]3Cc4cc5cnc(C6CC6)cc5c(S(=O)(=O)NCC(C)(C)F)c4C3)c[nH]c2c1 [Example 133, N-[(7R)-3-cyclopropyl-5-[(2-fluoro-2-methylpropyl)sulfamoyl]-7,8-dihydro-6H-cyclopenta[g]isoquinolin-7-yl]-6-methoxy-1H-indole-3-carboxamide]
Second: CC(C)(F)CNS(=O)(=O)c1c2c(cc3cnc(C4CC4)cc13)C[C@@H](NC(=O)c1n[nH]c3cc(Br)ccc13)C2 [Example 141, 6-bromo-N-[(7R)-3-cyclopropyl-5-[(2-fluoro-2-methylpropyl)sulfamoyl]-7,8-dihydro-6H-cyclopenta[g]isoquinolin-7-yl]-1H-indazole-3-carboxamide]
The IC50 of the first is lower: 10 to 50 nM for the first, 100 to 2000 nM for the second.

`Cc1ncsc1C(=O)N[C@@H]1Cc2cc3cnc(C4CC4)cc3c(S(=O)(=O)NCC(C)(C)F)c2C1` [Example 134, N-[(7R)-3-cyclopropyl-5-[(2-fluoro-2-methylpropyl)sulfamoyl]-7,8-dihydro-6H-cyclopenta[g]isoquinolin-7-yl]-4-methyl-1,3-thiazole-5-carboxamide] and `Cn1cc(C(=O)C(=O)N[C@@H]2Cc3cc4cnc(C5CC5)cc4c(S(=O)(=O)NCC(C)(C)F)c3C2)cn1` [Example 137, N-[(7R)-3-cyclopropyl-5-[(2-fluoro-2-methylpropyl)sulfamoyl]-7,8-dihydro-6H-cyclopenta[g]isoquinolin-7-yl]-2-(1-methylpyrazol-4-yl)-2-oxoacetamide] fall in the same range of IC50: 100 to 2000 nM for the first, 100 to 2000 nM for the second.

`CC(C)(F)CNS(=O)(=O)c1c2c(cc3cnc(C4CC4)cc13)C[C@@H](NC(=O)c1ccc3c(c1)CN(C(=O)OC(C)(C)C)C3)C2` [Example 136, tert-butyl 5-[[(7R)-3-cyclopropyl-5-[(2-fluoro-2-methylpropyl)sulfamoyl]-7,8-dihydro-6H-cyclopenta[g]isoquinolin-7-yl]carbamoyl]-1,3-dihydroisoindole-2-carboxylate] and `Cn1ncc(NC2Cc3cc4cnc(C5CC5)cc4c(S(=O)(=O)NCC(C)(C)F)c3C2)cc1=O` (centres unmarked) [Example 140, 3-cyclopropyl-N-(2-fluoro-2-methylpropyl)-7-[(1-methyl-6-oxopyridazin-4-yl)amino]-7,8-dihydro-6H-cyclopenta[g]isoquinoline-5-sulfonamide] fall in the same range of IC50: 10 to 50 nM for the first, 10 to 50 nM for the second.

First: CC(C)(F)CNS(=O)(=O)c1c2c(cc3cnc(C4CC4)cc13)C[C@@H](Nc1cnc(C(=O)O)c3ccccc13)C2 [Example 138, lithium; 4-[[(7R)-3-cyclopropyl-5-[(2-fluoro-2-methyl-propyl)sulfamoyl]-7,8-dihydro-6H-cyclopenta[g]isoquinolin-7-yl]amino]isoquinoline-1-carboxylate]
Second: C[S+]([O-])c1ccc(NC2Cc3cc4cnc(C5CC5)cc4c(S(=O)(=O)NCC(C)(C)F)c3C2)cn1 (centres unmarked) [Example 139, 3-cyclopropyl-N-(2-fluoro-2-methylpropyl)-7-[(6-methylsulfinylpyridin-3-yl)amino]-7,8-dihydro-6H-cyclopenta[g]isoquinoline-5-sulfonamide]
The IC50 of the first is higher: 50 to 100 nM for the first, 10 to 50 nM for the second. The second is the more potent here.

Work on `CC(C)(F)CNS(=O)(=O)c1c2c(cc3cnc(C4CC4)cc13)CC(NC1=CC(=O)OC1)C2` (centres unmarked) [Example 142, 3-cyclopropyl-N-(2-fluoro-2-methylpropyl)-7-[(5-oxo-2H-furan-3-yl)amino]-7,8-dihydro-6H-cyclopenta[g]isoquinoline-5-sulfonamide] yielded an IC50 of 100 to 2000 nM.
